Values quoted from earlier work as cited in patent US11857524B2, “Stable oral suspensions of baclofen” (ANI Pharmaceuticals, Inc., priority 2021, dated 2024).
Like-named read-outs stand apart in the source and are kept apart here.

Solubility (in chloroform): insoluble | Solubility (in methanol): very slightly soluble | Solubility (in water): slightly soluble
SMILES: NCC(CC(=O)O)c1ccc(Cl)cc1 (stereo not drawn) [Baclofen, 4-amino-3-(4-chlorophenyl)-butanoic acid]
